Data taken from patent publication US6211203A, “Benzofuran-4-carboxamides” (Byk Gulden Lomberg Chemische Fabrik GmbH, priority 1996, dated 2001).

Each compound was assayed on PDE IV (assay: Inhibition of PDE IV activity). Conditions: Inhibition of PDE IV activity (Table A).
Format: biochemical
For `COc1ccc(C(=O)Nc2c(Cl)cncc2Cl)c2cc(C)oc12` [Compound 1, N-(3,5-Dichloropyrid-4-yl)-7-methoxy-2-methylbenzofuran-4-carboxamide], the “-log IC50” value was 8.42.
For `COc1ccc(C(=O)Nc2c(Cl)cncc2Cl)c2cc(C(C)C)oc12` [Compound 2, N-(3,5-Dichloropyrid-4-yl)-7-methoxy-2-(1-methylethyl)benzofuran-4-carboxamide], the “-log IC50” value was 9.28.
`COc1ccc(C(=O)Nc2c(Cl)cncc2Cl)c2cc(C(C)C)oc12` [Compound 3, N-(3,5-Dichloropyrid-4-yl)-7-methoxy-2-(1-methylethyl)benzofuran-4-carboxamide] was tested, and the “-log IC50” value was 8.18.
With `CC(C)c1cc2c(C(=O)Nc3c(Cl)cncc3Cl)ccc(OC(F)F)c2o1` [Compound 4, N-(3,5-Dichloropyrid-4-yl)-7-difluoromethoxy-2-(1-methylethyl)benzofuran-4-carboxamide] the “-log IC50” value was 9.72.
In the case of `COc1ccc(C(=O)Nc2c(Cl)cncc2Cl)c2cc(C3CCCC3)oc12` [Compound 5, N-(3,5-Dichloropyrid-4-yl)-2-cyclopentyl-7-methoxybenzofuran-4-carboxamide], the “-log IC50” value is reported as 8.80.
